Results from US20210007356A1, “IMIDE DERIVATIVE AND FUNGICIDE CONTAINING SAID DERIVATIVE AS ACTIVE INGREDIENT” (HOKKO CHEMICAL INDUSTRY CO., LTD., priority 2018, published 2021).

Key:
[1] = tested on: barley powdery mildew fungus (Erysiphe graminis); test: Test Example 2: control effect against barley powdery mildew by foliage application; assay type: in vivo; settings: wettable powder diluted to 100 ppm, 10 mL per pot foliage spray on barley; inoculated day after; 7 days after inoculation
[2] = tested on: rice sheath blight fungus (Thanatephorus cucumeris); test: Test Example 8: control effect against rice sheath blight by box treatment (granule); settings: 5 g of granule on nursery box, paddy rice; inoculated after 3 weeks; 7 days after inoculation
[3] = tested on: rice sheath blight fungus (Thanatephorus cucumeris); test: Test Example 6: control effect against rice sheath blight by box treatment (flowable formulation); settings: flowable 5,000 ppm, 50 mL irrigation of nursery box, paddy rice; inoculated after 3 weeks; 7 days after inoculation
[4] = tested on: rice sheath blight fungus (Thanatephorus cucumeris); test: Test Example 10: control effect against rice sheath blight by water surface application (flowable formulation); settings: flowable 1,000 ppm, 1 mL dripped in paddy water, inoculated after 1 week, 7 days after inoculation

With `Cn1cc(C(=O)N(C(=O)c2cc(Cl)c(Cl)s2)c2ccccc2-c2cc(F)c(F)c(F)c2)c(C(F)F)n1` [1-373] the “evaluation value of control effect (from control value, lesion area percentage)” value [1] was 4, the “evaluation value of control effect (from control value, lesion height)” value [2] was 5 and the “evaluation value of control effect (from control value, lesion height)” value [3] was 5. For the same compound, the “evaluation value of control effect (from control value, lesion height)” value [4] was 5.

In the case of `Cc1nnsc1C(=O)N(C(=O)c1c(C)nn(C)c1Cl)c1cccc2c1C(C)OC2(C)C` (stereo not drawn) [25-116], the “evaluation value of control effect (from control value, lesion area percentage)” value [1] is reported as 4, the “evaluation value of control effect (from control value, lesion height)” value [2] is reported as 5 and the “evaluation value of control effect (from control value, lesion height)” value [3] is reported as 5. The “evaluation value of control effect (from control value, lesion height)” value [4] was 5.

`CC1CC(C)(C)c2cccc(N(C(=O)c3cn(C)nc3C(F)F)C(=O)c3scnc3C(F)(F)F)c21` (stereo not drawn) [25-103] was tested, and the “evaluation value of control effect (from control value, lesion area percentage)” value [1] was 4.

`Cc1nc(C(F)(F)F)c(C(=O)N(C(=O)c2cn(C)nc2C(F)F)c2ccccc2C(C)CC(C)C)s1` (stereo not drawn) [1-300] was tested, and the “evaluation value of control effect (from control value, lesion area percentage)” value [1] was 5, the “evaluation value of control effect (from control value, lesion height)” value [2] was 5 and the “evaluation value of control effect (from control value, lesion height)” value [3] was 5. For the same compound, the “evaluation value of control effect (from control value, lesion height)” value [4] was 5.

With `Cc1nc(C(F)F)c(C(=O)N(C(=O)c2snc(Cl)c2Cl)c2cccc3c2C(C)CC3(C)C)s1` (stereo not drawn) [26-8] the “evaluation value of control effect (from control value, lesion area percentage)” value [1] was 5, the “evaluation value of control effect (from control value, lesion height)” value [2] was 5 and the “evaluation value of control effect (from control value, lesion height)” value [3] was 5. For the same compound, the “evaluation value of control effect (from control value, lesion height)” value [4] was 5.

With `CCC(C)Oc1cccc(N(C(=O)c2cn(C)nc2C(F)F)C(=O)c2snc(Cl)c2Cl)c1C` (stereo not drawn) [1-122] the “evaluation value of control effect (from control value, lesion height)” value [2] was 5, the “evaluation value of control effect (from control value, lesion height)” value [3] was 5 and the “evaluation value of control effect (from control value, lesion height)” value [4] was 5.

For `Cc1nc(C(F)F)c(C(=O)N(C(=O)c2snnc2C)c2ccsc2C(C)CC(C)C)s1` (stereo not drawn) [11-20], the “evaluation value of control effect (from control value, lesion area percentage)” value [1] was 5.

For `CC1CC(C)(C)c2cccc(N(C(=O)c3cccnc3C(F)F)C(=O)c3snc(Cl)c3Cl)c21` (stereo not drawn) [27-3], the “evaluation value of control effect (from control value, lesion area percentage)” value [1] was 5, the “evaluation value of control effect (from control value, lesion height)” value [2] was 5 and the “evaluation value of control effect (from control value, lesion height)” value [3] was 5. The “evaluation value of control effect (from control value, lesion height)” value [4] was 5.

`Cc1nc(C(F)F)c(C(=O)N(C(=O)c2snc(Cl)c2Cl)c2c(Br)cc(OC(F)(F)F)cc2Br)s1` [7-129] was tested, and the “evaluation value of control effect (from control value, lesion area percentage)” value [1] was 4.

`Cc1nn(C)c(F)c1C(=O)N(C(=O)c1cc(Cl)nc(Cl)c1)c1ccccc1C(C)CC(C)C` (stereo not drawn) [1-266] was tested, and the “evaluation value of control effect (from control value, lesion area percentage)” value [1] was 4.

In the case of `Cc1nc(C(F)F)c(C(=O)N(C(=O)c2cn(C)nc2C(F)F)c2ccccc2-c2cc(F)c(F)c(F)c2)s1` [1-372], the “evaluation value of control effect (from control value, lesion area percentage)” value [1] is reported as 4, the “evaluation value of control effect (from control value, lesion height)” value [2] is reported as 5 and the “evaluation value of control effect (from control value, lesion height)” value [3] is reported as 5. The “evaluation value of control effect (from control value, lesion height)” value [4] was 5.

With `CCc1nc(C(F)F)c(C(=O)N(C(=O)c2c(C)nn(C)c2F)c2ccccc2C(C)CC(C)C)s1` (stereo not drawn) [1-292] the “evaluation value of control effect (from control value, lesion height)” value [2] was 5, the “evaluation value of control effect (from control value, lesion height)” value [3] was 5 and the “evaluation value of control effect (from control value, lesion height)” value [4] was 5.

`Cc1nc(C(F)F)c(C(=O)N(C(=O)c2sc(C)nc2C(F)F)c2cccc3c2C(C)CC3(C)C)s1` (stereo not drawn) [26-77] was tested, and the “evaluation value of control effect (from control value, lesion area percentage)” value [1] was 4, the “evaluation value of control effect (from control value, lesion height)” value [2] was 5 and the “evaluation value of control effect (from control value, lesion height)” value [3] was 5. For the same compound, the “evaluation value of control effect (from control value, lesion height)” value [4] was 5.

`Cc1nc(C(F)(F)F)c(C(=O)N(C(=O)c2scnc2C(F)(F)F)c2c(Br)cc(OC(F)(F)F)cc2Br)s1` [7-284] was tested, and the “evaluation value of control effect (from control value, lesion height)” value [2] was 5, the “evaluation value of control effect (from control value, lesion height)” value [3] was 5 and the “evaluation value of control effect (from control value, lesion height)” value [4] was 5.

For `Cc1nnsc1C(=O)N(C(=O)c1cn(C)nc1C(F)F)c1cccc2c1C(C)CC2(C)C` (stereo not drawn) [25-47], the “evaluation value of control effect (from control value, lesion area percentage)” value [1] was 4, the “evaluation value of control effect (from control value, lesion height)” value [2] was 5 and the “evaluation value of control effect (from control value, lesion height)” value [3] was 5. The “evaluation value of control effect (from control value, lesion height)” value [4] was 5.

`Cc1nn(C)c(Cl)c1C(=O)N(C(=O)c1cc(Cl)nc(Cl)c1)c1cccc2c1C(C)OC2(C)C` (stereo not drawn) [25-125] was tested, and the “evaluation value of control effect (from control value, lesion area percentage)” value [1] was 4.

In the case of `Cc1nn(C)c(F)c1C(=O)N(C(=O)c1cccc2nnsc12)c1ccccc1C(C)CC(C)C` (stereo not drawn) [1-279], the “evaluation value of control effect (from control value, lesion height)” value [2] is reported as 5, the “evaluation value of control effect (from control value, lesion height)” value [3] is reported as 5 and the “evaluation value of control effect (from control value, lesion height)” value [4] is reported as 5.

In the case of `Cn1cc(C(=O)N(C(=O)c2snc(Cl)c2Cl)c2ccccc2-c2cc(F)c(F)c(F)c2)c(C(F)F)n1` [1-65], the “evaluation value of control effect (from control value, lesion area percentage)” value [1] is reported as 5, the “evaluation value of control effect (from control value, lesion height)” value [2] is reported as 5 and the “evaluation value of control effect (from control value, lesion height)” value [3] is reported as 5. The “evaluation value of control effect (from control value, lesion height)” value [4] was 5.

In the case of `Cc1nc(C(F)(F)F)c(C(=O)N(C(=O)c2c(C)nn(C)c2F)c2ccccc2C(C)CC(C)C)s1` (stereo not drawn) [1-307], the “evaluation value of control effect (from control value, lesion area percentage)” value [1] is reported as 4.

`CC(C)CC(C)c1ccccc1N(C(=O)c1cccnc1C(F)F)C(=O)c1cn(C)nc1C(F)F` (stereo not drawn) [1-349] was tested, and the “evaluation value of control effect (from control value, lesion area percentage)” value [1] was 4.

`CC1CC(C)(C)c2cccc(N(C(=O)c3cn(C)nc3C(F)F)C(=O)c3onc(Cl)c3Cl)c21` (stereo not drawn) [25-113] was tested, and the “evaluation value of control effect (from control value, lesion area percentage)” value [1] was 4, the “evaluation value of control effect (from control value, lesion height)” value [2] was 5 and the “evaluation value of control effect (from control value, lesion height)” value [3] was 5. For the same compound, the “evaluation value of control effect (from control value, lesion height)” value [4] was 5.

`Cn1cc(C(=O)N(C(=O)c2snc(Cl)c2Cl)c2ccccc2-c2ccccc2)c(C(F)F)n1` [1-61] was tested, and the “evaluation value of control effect (from control value, lesion area percentage)” value [1] was 4.

`CCc1nc(C(F)F)c(C(=O)N(C(=O)c2cn(C)nc2C(F)F)c2cccc3c2C(C)CC3(C)C)s1` (stereo not drawn) [25-85] was tested, and the “evaluation value of control effect (from control value, lesion area percentage)” value [1] was 4, the “evaluation value of control effect (from control value, lesion height)” value [2] was 5 and the “evaluation value of control effect (from control value, lesion height)” value [3] was 5. The “evaluation value of control effect (from control value, lesion height)” value [4] was 5.

`Cc1nc(C(F)F)c(C(=O)N(C(=O)c2snc(Cl)c2Cl)c2ccccc2-c2cc(F)c(F)c(F)c2)s1` [7-68] was tested, and the “evaluation value of control effect (from control value, lesion area percentage)” value [1] was 4.

For `Cc1nc(C(F)F)c(C(=O)N(C(=O)c2c(C)nn(C)c2F)c2ccccc2C(C)CC(C)C)s1` (stereo not drawn) [1-325], the “evaluation value of control effect (from control value, lesion area percentage)” value [1] was 4.
